The test system of test [1] is HCT116. The conditions noted are these: cited from earlier work.
In another test the test system is Bel7402. Kind of test: MTT antiproliferative assay, Bel7402 cells. The conditions noted are these: for IC50: Homo sapiens, Bel-7402, MTT, 48 h, means ± SD, n = 3; for Selectivity index Bel7402: IC50 on normal cells (L02)/IC50 on tumour cells (Bel7402). Type of test: cell-based, human. The text has this:
(§1) Human gastric cancer (AGS), human differentiation of advanced gastric cancer (MGC803), human colorectal cancer (HCT116), human lung cancer (A549), human hepatocellular carcinoma (Bel7402) and human cervical cancer (HeLa) cell lines were obtained from the State Key Laboratory of Natural Resources and Functional Molecules of the Changbai Mountain (Yanbian University) and maintained in Dulbecco’s modified Eagle’s medium and RPMI Media 1640 (RPMI1640), supplemented with 10% foetal bovine serum 100 IU/ml penicillin, […] and 2 mmol/l L-glutamine (Sigma) at 37 °7 in a humidified atmosphere containing 5% CO2.
(§2) All six human cancer cell lines and normal L02 cells were seeded in 96-well plates at the appropriate densities to ensure exponential growth throughout the experimental period (9 × 10^3 cells per well) and then allowed to adhere for 24 h. The cells were then treated for 48 h with four serial dilutions (100, 50, 10, and 1 µM) of each compound. 5-Fluorouracil (5-FU) was used as the positive control. After incubation for 48 h, 10 µl MTT solution was added to each well to give a final concentration of 2 mg ml^−1. The plates were then incubated for further 4 h. After incubation, the MTT solution was removed and 150 µl DMSO was added to each well to solubilise the formed product. To ensure complete solubilisation, the plates were shaken vigorously for 10 min at room temperature. The optometric density (OD) was read on a microplate reader (ELx800, BioTek, Highland Park, Winooski, VT) at a wavelength of 492 nm and the data were subsequently analysed. The percentage of cell growth inhibition was calculated from the following equation: inhibitory rate (%) = [1–(ODtreated–ODblank)/(ODcontrol–ODblank)] × 100.
(§3) The MTT assay was performed using a standard protocol.
(Tetrazolium assays rely on reduction of a dye to a coloured formazan, in cell work by metabolically active cells.)

The subject of the next test is L02. Kind of test: MTT assay on normal cell line L02. Type of test: cell-based. The conditions noted are these: normal human liver cell line L02, MTT, 48 h. The procedure: as §2, with “5-Fluorouracil (5-FU) was used as the positive control.” left out
Lack of selective cytotoxicity is the main factor that restricts the dose of most conventional chemotherapeutic agents. […] Selectivity indexes between cancer cells and L-02 cells were calculated.

A further test concerns Hela. Kind of test: MTT antiproliferative assay, HeLa cells. The conditions noted are these: for IC50: Homo sapiens, HeLa, MTT, 48 h, means ± SD, n = 3; for Selectivity index Hela: IC50 on normal cells (L02)/IC50 on tumour cells (Hela). Format: cell-based, human.
From the text: as §1, §2, §3

In test [2] the test system is AGS, MGC803, Bel7402, HCT116, A549, and HeLa. Kind of test: MTT assay, overall statement on six tumour cell lines. Format: cell-based, human. Particulars: six cancer cell lines.
From the text: as §1, §2, §3

For a further test, the system named is MGC803. Put plainly: MTT antiproliferative assay, MGC803 cells. Type of test: cell-based, human. The conditions noted are these: for IC50: Homo sapiens, MGC-803, MTT, 48 h, means ± SD, n = 3; for Selectivity index MGC803: IC50 on normal cells (L02)/IC50 on tumour cells (MGC803).
From the text: as §1, §2, §3

Test [3] has as its system HCT116. Put plainly: MTT antiproliferative assay, HCT116 cells. Type of test: cell-based, human. Particulars: for IC50: MTT, 48 h, means ± SD, n = 3; for Selectivity index HCT116: IC50 on normal cells (L02)/IC50 on tumour cells (HCT116).
From the text: as §1, §2, §3

The next test deals with AGS. Put plainly: MTT antiproliferative assay, AGS cells. Format: cell-based, human. Particulars: for Selectivity index AGS: IC50 on normal cells (L02)/IC50 on tumour cells (AGS); for IC50: MTT, 48 h, means ± SD, n = 3.
From the text: as §1, §2, §3

In another test the test system is A549. Kind of test: MTT antiproliferative assay, A549 cells. Format: cell-based, human. The conditions noted are these: for IC50: Homo sapiens, A549, MTT, 48 h, means ± SD, n = 3; for Selectivity index A549: IC50 on normal cells (L02)/IC50 on tumour cells (A549).
From the text: as §1, §2, §3

Test [4] deals with HCT116 cells. Kind of test: Cell cycle distribution by flow cytometry (PI). Type of test: cell-based, human. The conditions noted are these: HCT116, 5 μM, 48 h; control 19.35%. On the procedure:
HCT116 cells were plated in six-well plates (1.0 × 10^6 cells per well) and incubated at 37 °7 for 12 h. Exponentially growing cells were then incubated with compound 2p at different concentrations (0 , 5.0 µM) and oridonin at 5.0 µM. After 48 h, the cells were centrifuged at 1000 rpm for 10 min and then fixed in 70% ethanol at −20 °0 for at least 24 h. The cells were subsequently resuspended in phosphate-buffered saline (PBS) containing 50 µg ml^−1 RNase A and 50 µg ml^−1 PI. The cellular DNA content for the cell cycle distribution analysis was measured by flow cytometry using a FACSCalibur flow cytometer with Cell Quest software (Becton-Dickinson, Franklin Lakes, NJ), plotting at least 30,000 events per sample. The percentage of cells in the G1, S and G2 phases of the cell cycle were determined using the ModFit LT V4.0 software package (Verity Software, Topsham, ME).
Numerous cytotoxic compounds exert their antiproliferative effect by inducing cell cycle arrest (at a particular cell cycle checkpoint), apoptosis, or both[25]. These mechanisms are considered to be effective anticancer strategies. We used fluorescence-activated cell sorting analysis to explore the mechanism by which compound 2p reduced the viability of HCT116 cells. Compound 2p and oridonin were selected and tested against HCT116 cell lines at a concentration of 5 µM.
(Flow cytometry measures light scatter and fluorescence of single cells or particles in a stream.)

The subject of test [5] is HCT116 cells. Kind of test: Apoptosis by flow cytometry (annexin V-FITC/PI). Format: cell-based, human. Particulars: HCT116, 5 µM, 48 h; vehicle 6.20%. On the procedure:
Apoptosis was detected using an Apoptosis Detection Kit (Invitrogen, Eugene, OR). Briefly, cells were plated in six-well plates (1.0 × 10^6 cells per well) and incubated at 37 °C for 12 h. Exponentially growing cells were then incubated with compound 2p at different concentrations (0 , 5.0 µM) and oridonin at 5.0 µM. Following 48 h of incubation, the cells were collected and washed twice with PBS, once with 1 × binding buffer, and then stained with 5 µM annexin V-FITC and 2.5 µM PI in 1 × binding buffer for 30 min at room temperature in the dark. Apoptotic cells were quantified using a FACSCalibur flow cytometer with the Cell Quest software (Becton-Dickinson).
Because compound 2p arrested the cells in the G2 phase, we investigated whether it also causes apoptosis. HCT116 cells were treated with the vehicle, compound 2p (5 µM), or oridonin (5 µM) for 48 h, and then stained with annexin V-FITC and PI.

Like-named read-outs stand apart in the source and are kept apart here.

A word on the IC50: it is the concentration at which inhibition is half-maximal. For the compound `CC(C)=CCOc1ccc(C(=O)/C=C/c2ccc(Cl)cc2)c(O)c1` [Compound 4], the IC50 with HCT116 [1] was 0.89 µM.

Take `COc1ccc(C=C2C(=O)C34C(O)C2CCC3C23COC4(O)C(O)C2C(C)(C)CCC3O)c(OC)c1` [Compound 2l, (1S,4aR,5S,6S,6aR,9S,11aS,14R,E)-8-(2,4-dimethoxybenzylidene)-1,5,6,14-tetrahydroxy-4,4-dimethyldecahydro-1H-6,11b-(epoxymethano)-6a,9-methanocyclohe-pta[a]naphthalen-7(8H)-one]: the IC50 with Bel7402 is 2.41 ± 0.37 µM; in the test with L02 it was 7.15 ± 1.36 µM; with Hela, 14.3 ± 2.04 µM; in the test with MGC803 it was 3.49 ± 0.44 µM; with HCT116 [3] (Homo sapiens, HCT-116, 48 h), 2.28 ± 0.54 µM; with AGS, 5.85 ± 1.55 µM. The midpoint of inhibition with A549, the IC50, lay at 5.12 ± 0.49 µM. The “Selectivity index Bel7402” value in the test on Bel7402 was determined as 2.97. Also, in test [2], the “antiproliferative activities against the six tumour cell lines (in words)” value is on record as “more potent antiproliferative activities in vitro than oridonin”. The “Selectivity index MGC803” value in the test with MGC803 is 2.05. The “Selectivity index HCT116” value in the test on HCT116 [3] came to 3.14. In addition, the “Selectivity index AGS” value in the test with AGS worked out at 1.22. In the test with A549, the “Selectivity index A549” value was 1.40.

For `C=C1C(=O)[C@]23[C@H](O)[C@H]1CC[C@H]2[C@@]12CO[C@]3(O)[C@@H](O)[C@@H]1C(C)(C)CC[C@@H]2O` [Oridonin], the IC50 with Bel7402 amounted to 9.59 ± 1.19 µM; in the test with L02 it was 6.97 ± 0.98 µM; in the test on Hela, 15 ± 2.01 µM; in the test on MGC803 it was 9.18 ± 1.01 µM; in the test with HCT116 [3] (Homo sapiens, HCT-116, 48 h) it was 6.84 ± 0.98 µM; in the test with AGS (Homo sapiens, AGS), 8.35 ± 0.41 µM. The same compound returned an IC50 in the test with A549 of 24.7 ± 2.11 µM. Moreover, in the test on Bel7402, the “Selectivity index Bel7402” value is recorded as 0.73. In the test with Hela, the “Selectivity index Hela” value was 0.46. Also, the “percentage of G2 cell population” value with HCT116 cells [4] was found to be 37.80%. In the test with HCT116 cells [5], the “percentage of total apoptotic cells (right quadrants, Q2 + Q3)” value is on record as 24.84%. Further, the “Selectivity index MGC803” value with MGC803 stood at 0.76. In the test on HCT116 [3], the “Selectivity index HCT116” value came to 1.02. In addition, the “Selectivity index AGS” value in the test with AGS is given as 0.83. For the same compound, the “Selectivity index A549” value in the test with A549 turned out to be 0.28.

As to `CC(C)=CCOc1ccc(/C=C2/C(=O)[C@]34[C@H](O)[C@H]2CC[C@H]3C23CO[C@]4(O)[C@@H](O)[C@@H]2C(C)(C)CC[C@@H]3O)cc1` [Compound 2p, (1S,4aR,5S,6S,6aR,9S,11aS,14R,E)-1,5,6,14-tetrahydroxy-4,4-dimethyl-8-(4-((3-methylbut-2-en1yl)oxy)benzylidene)decahydro-1H-6,11b-(epoxymethano)-6a,9-methanocyclohepta[a]naphthalen-7(8H)-one], the IC50 in the test with Bel7402 amounted to 3.21 ± 0.58 µM; in the test with L02, 6.88 ± 1.12 µM; in the test on Hela it was 6.33 ± 0.96 µM; in the test on MGC803, 4.54 ± 0.94 µM; in the test with HCT116 [3] (Homo sapiens, HCT-116, 48 h) it was 1.08 µM; in the test with HCT116 [3], 1.05 ± 0.23 µM. The IC50 with AGS (Homo sapiens, AGS) was found to be 4.09 ± 0.65 µM; with A549 it was 5.9 ± 0.52 µM. Moreover, in the test with Hela, the “Selectivity index Hela” value is given as 1.09. In addition, in test [2], the “antiproliferative activities against the six tumour cell lines (in words)” value is on record as “more potent antiproliferative activities in vitro than oridonin”. In the test on HCT116 cells [4], the “percentage of G2 cell population” value stood at 41.46%. Also, in the test on HCT116 cells [5], the “percentage of total apoptotic cells (right quadrants, Q2 + Q3)” value was 60.94%. Further, the “Selectivity index MGC803” value with MGC803 came to 0.75. Besides, the “Selectivity index HCT116” value in the test on HCT116 [3] amounted to 6.55. For the same compound, in the test on HCT116 [3] (L02 versus HCT116), the “IC50 value in L02 cells relative to that in HCT116 cells (selectivity)” value turned out to be 6.5 fold. For the same compound, the “Selectivity index AGS” value in the test with AGS is reported as 3.28. Also, the “Selectivity index A549” value in the test with A549 turned out to be 1.17.

(Values after article PMC6054517, “Design and synthesis of novel oridonin analogues as potent anticancer agents” (Journal of Enzyme Inhibition and Medicinal Chemistry, 2018).)
